Assay results reported in US8202998B2, “Salts of benzimidazolyl pyridyl ethers and formulations thereof” (Novartis AG, priority 2006, dated 2012).
Converted amounts (≈) assume the structure as drawn.

Assays:
[1] = Thermogravimetry / loss on drying; assay type: physicochemical
[2] = pH of 1% solution or suspension; assay type: physicochemical; settings: In water
[3] = Effect of grinding on morphic properties; assay type: physicochemical
[4] = Polymorphism behavior: crystal modification after 24 hours equilibration; assay type: physicochemical
Description: A suspension of 6 mg of drug substance in 300 μl of solvent is prepared. Samples are agitated for ≧24 hour at 22° C.±2° C. The solids are collected and investigated for changes.

[5] = Determination of solubility at 25° C.; assay type: physicochemical; settings: for solubility: thermodynamic from solid
Description: Excess solids were equilibrated in each solvent for over 24 hours at 25° C.±0.1. Concentration in aqueous supernatant was measured by UV and HPLC and concentrations in organic solvents by gravimetry.

[6] = Hygroscopicity (sorption/desorption); assay type: physicochemical
Description: Sorption/desorption isotherms were measured using VTI vapor sorption device (DVS-1). Measurements were carried out at 25° C.

[7] = Bioavailability study of API and salts of API in dogs; assay type: in vivo, beagle dogs; settings: single 100 mg oral dose
Description: For comparison, a microemulsion of the free base was also studied. The study was performed with 4 dogs, weighing 9-15 kg each. A crossover design with a washout period of at least 1 week was used. The dogs were given a single oral dose of 100 mg of test compound, administered under fasting conditions.

[8] = Aqueous solubility of salts in deionized water
[9] = Stability: degradation products (DP) and appearance (color) under stress conditions; assay type: physicochemical; set-up: key to CL: A: No change of color; B: Slight discoloration; C: Medium discoloration; D: Strong discoloration; ↓: Suspension; *: Clear solution after stress test; —: no change; x: test not performed
Description: Column: Symmetry C18 (Waters), 3.5 μm, 3×150 mm
Mobile phase: A=0.1% TFA in water; B=acetonitrile
Gradient: 20 to 100% B in 10 minutes
Column temperature: 40° C.
Stability of the three salts with respect to color and degradation products were assessed under various conditions.

[10] = Intrinsic dissolution rate; assay type: physicochemical; settings: 37° C.
Description: The intrinsic dissolution rate measurements were carried out in 0.5 cm^2 VanKel die assemblies and a pellet pressure of 1 ton. The dissolution was measured using a Cary 50 spectrophotometer with a stirring rate of 200 rpm. The solution medium was held at 37° C. and measurements were made at 276 nm.

[11] = Apparent pKa by pH profile solubility study; assay type: physicochemical; settings: determined by a pH profile solubility study
Source text: The apparent pKa of the compound of Formula I refers to the apparent ionization constant of the compound of Formula I as determined by a pH profile solubility study. Thus, the apparent pKa of the compound of Formula I is a complex term consisting of three overlapping ionization constants of the basic nitrogens in Formula I.

[12] = Aqueous solubility of API as a function of pH (shake flask method); assay type: physicochemical; settings: for solubility at 5 days: aqueous HCl or NaOH solution, ionic strength 0.15 (KCl), thermodynamic from solid, room temperature
Description: The aqueous solubility of the compound of Formula I was assessed as a function of pH. Solubility of the compound of Formula I was determined using the shake flask method. The following aqueous solutions of hydrochloric acid (HCl) were prepared: 100, 33.3, 11.1, 3.7, 1.2, 0.4, and 0 mM. The following aqueous solutions of sodium hydroxide (NaOH) were prepared: 1.2 and 0.4 mM. The ionic strength of each of these solutions was adjusted to 0.15 using potassium chloride. Excess amounts of the compound of Formula I were added to a 1 mL aliquot of each of the above solutions in 1.5-mL polypropylene tubes. The tubes were agitated at room temperature for 5 days before analysis. On the day of analysis, the tubes were centrifuged at 15,000 revolutions per minute (rpm) using a microcentrifuge at 22° C. for 20 minutes. The concentration of compound of Formula I in the supernatant was measured by HPLC. The pH of the supernatant was measured using an Orion pH meter, which was calibrated before use.

[13] = beagle, dog, plasma, fasting, mean and sd
[14] = deionized water, water, thermodynamic from solid
[15] = 0.1% solutions or suspensions, 1 week 80° C. or 50° C., Methanol
[16] = 0.1% solutions or suspensions, 1 week 80° C. or 50° C., Water
[17] = 0.1% solutions or suspensions, 1 week 80° C. or 50° C., pH 1
[18] = 0.1% solutions or suspensions, 1 week 80° C. or 50° C., pH 3
[19] = 0.1% solutions or suspensions, 1 week 80° C. or 50° C., pH 5
[20] = 0.1% solutions or suspensions, 1 week 80° C. or 50° C., pH 7
[21] = 0.1% solutions or suspensions, 1 week 80° C. or 50° C., pH 9
[22] = 0.1% solutions or suspensions, 1 week 80° C. or 50° C., pH 11
[23] = 1-2 weeks 50° C., tight container, 1% in mixture 1
[24] = 1-2 weeks 50° C., tight container, 1% in mixture 2
[25] = 1-2 weeks 50° C./75% r.h., 1% in mixture 1
[26] = 1-2 weeks 50° C./75% r.h., 1% in mixture 2
[27] = Solid stage, 1 week 80° C., tight container, Bulk (HPLC)
[28] = Xenon light (approx. 1200 kLuxh), Bulk (HPLC)

## Cn1c(Nc2ccc(C(F)(F)F)cc2)nc2cc(Oc3ccnc(-c4ncc(C(F)(F)F)[nH]4)c3)ccc21 [API, {1-methyl-5-[2-(5-trifluoromethyl-1H-imidazol-2-yl)-pyridin-4-yloxy]-1H-benzoimidazol-2-yl}-(4-trifluoromethyl-phenyl)amine]
[1]; As is
  Loss on drying by TG: 3.3%
[1]; Heating rate 20 K/min
  Thermogravimetry (weight loss in %): 3.3%
[2]
  pH of 1% solution or suspension: 5.5
[3]
  Effect of grinding: No change
[4]; 2-propanol
  Crystal modification after 24 hours equilibration (DSC/XRPD/TG): No change
[4]; Acetone
  Crystal modification after 24 hours equilibration (DSC/XRPD/TG): No change
[4]; Acetonitrile
  Crystal modification after 24 hours equilibration (DSC/XRPD/TG): Change
[4]; Ethanol
  Crystal modification after 24 hours equilibration (DSC/XRPD/TG): No change
[4]; Ethyl acetate
  Crystal modification after 24 hours equilibration (DSC/XRPD/TG): No change
[4]; Methanol
  Crystal modification after 24 hours equilibration (DSC/XRPD/TG): No change
[4]; PEG400
  Crystal modification after 24 hours equilibration (DSC/XRPD/TG): No change
[4]; Water
  Crystal modification after 24 hours equilibration (DSC/XRPD/TG): Change
[5]; 0.1N HCl, 25 °C, simulated gastric fluid, read-out: Solubility (approx. at 25° C.) (HPLC)
  solubility: 200 µg/mL (≈ 386 µM)
[5]; acetonitrile, 25 °C, organic solvent or mixture, read-out: Solubility (approx. at 25° C.)
  solubility: 5200 µg/mL (≈ 10000 µM)
[5]; aqueous medium at pH 3, 25 °C, pH 3, aqueous buffer, read-out: Solubility (approx. at 25° C.) (HPLC)
  solubility: 0.06 µg/mL (≈ 0.116 µM)
[5]; aqueous medium at pH 4.5, 25 °C, pH 4.5, aqueous buffer, read-out: Solubility (approx. at 25° C.) (HPLC)
  solubility: 0.09 µg/mL (≈ 0.174 µM)
[5]; line after Water under Solubility
  Solid: No change
[5]; methanol, 25 °C, organic solvent or mixture, read-out: Solubility (approx. at 25° C.)
  solubility: 11400 µg/mL (≈ 22000 µM)
[5]; summary of Table 8
  Aqueous solubility (in words): nearly insoluble in water
[5]; water, 25 °C, water, read-out: Solubility (approx. at 25° C.) (HPLC)
  solubility: 24 µg/mL (≈ 46.3 µM)
[6]
  Hygroscopicity from moisture sorption profiles (in words): non-hygroscopic
[6]; 80% r.h., 1 day, 25° C.
  Hygroscopicity: After 1 day at 80% r.h.: 0
[6]; 95% r.h., 1 day, 25° C.
  Hygroscopicity: After 1 day at 95% r.h.: 0.1
[7]; [13]
  AUC(0-inf): 5310 ± 4510 ng·h/mL
  Cmax: 62.9 ± 74.4 ng/mL
[7]; beagle, dog, plasma, fasting, median
  Tmax: 16 h
[7]; fasting, median
  Tlag: 1.0 h
[7]; relative to an iv dose of 1.25 mg/kg
  Absolute F: 2.32 ± 1.97
[8]; [14]
  solubility: 9 µg/mL
  solubility at 48 h: 4 µg/mL
[8]; pH of the saturated aqueous solutions
  pH: 5.235
[9]; [15]
  CL: A
  DP: 0.6%
[9]; [16]
  CL: A↓
  DP: 0.6%
[9]; [17]
  CL: A
  DP: 1.4%
[9]; [18]
  CL: A↓
  DP: 0.9%
[9]; [19]
  CL: A↓
  DP: 0.6%
[9]; [20]
  CL: A↓
  DP: 0.9%
[9]; [21]
  CL: A↓
  DP: 27.0%
[9]; [22]
  CL: A↓
  DP: >99%
[9]; [23]
  CL: A
  DP: 0.7%
[9]; [24]
  CL: A
  DP: 0.6%
[9]; [25]
  CL: A
  DP: 0.8%
[9]; [26]
  CL: A
  DP: 0.5%
[9]; In methanol
  Stability in methanol (in words): stable
[9]; [27]
  CL: A
  DP: 0.6%
[9]; Solid state, 1 week 80° C./175% r.h, Bulk (HPLC)
  DP: 0.6%
[9]; Solid state, 1 week 80° C./, Bulk (HPLC)
  CL: A
[9]; Unstressed
  DP: 0.6%
[9]; [28]
  CL: A
  DP: 0.6%
[9]; aqueous
  optimum pH for aqueous stability: 5
[9]; higher pH (9 and 11)
  Aqueous stability at higher pH (in words): decomposes
[10]; HCl 0.1N
  Intrinsic dissolution rate: 0 mg min^−1 cm^−2
[10]; Water
  Intrinsic dissolution rate: 0 mg min^−1 cm^−2
[11]
  pKa: ~4.7
[12]; Water
  Aqueous solubility (in words): practically insoluble in water
[12]; aqueous buffer, pH 2.19
  solubility at 5 days: 125 µg/mL (≈ 242 µM)
[12]; aqueous buffer, pH 3.75
  solubility at 5 days: 1.9 µg/mL (≈ 3.66 µM)
[12]; aqueous buffer, pH 5.78
  solubility at 5 days: 0.4 µg/mL (≈ 0.772 µM)
[12]; aqueous buffer, pH 10.13
  solubility at 5 days: 0.3 µg/mL (≈ 0.579 µM)
[12]; aqueous buffer, pH 11.00
  solubility at 5 days: 0.3 µg/mL (≈ 0.579 µM)
[12]; simulated gastric fluid, pH 1.36
  solubility at 5 days: 709 µg/mL (≈ 1370 µM)
